# According to ChEMBL document CHEMBL4364246, “Synthesis and biological evaluation of 5-aminoethyl benzophenanthridone derivatives as DNA topoisomerase IB inhibitors” (Eur J Med Chem, 2019):
# Assays:
# [1] = system: UACC-62; assay: Growth inhibition of human UACC62 cells incubated for 48 hrs by sulforhodamine B assay; type: functional; details: UACC-62, 48 h
# [2] = system: SN12C; assay: Growth inhibition of human SN12C cells incubated for 48 hrs by sulforhodamine B assay; type: functional
# [3] = system: EKVX; assay: Growth inhibition of human EKVX cells incubated for 48 hrs by sulforhodamine B assay; type: functional
# [4] = system: HT-29; assay: Growth inhibition of human HT-29 cells incubated for 48 hrs by sulforhodamine B assay; type: functional; details: HT-29, 48 h
# [5] = system: SR; assay: Growth inhibition of human SR cells incubated for 48 hrs by sulforhodamine B assay; type: functional
# [6] = system: M14; assay: Growth inhibition of human M14 cells incubated for 48 hrs by sulforhodamine B assay; type: functional; details: M14, 48 h
# [7] = system: HCT-15; assay: Growth inhibition of human HCT15 cells incubated for 48 hrs by sulforhodamine B assay; type: functional; details: HCT-15, 48 h
# [8] = system: SF-268; assay: Growth inhibition of human SF268 cells incubated for 48 hrs by sulforhodamine B assay; type: functional; details: SF-268, 48 h
# [9] = system: SW-620; assay: Growth inhibition of human SW620 cells incubated for 48 hrs by sulforhodamine B assay; type: functional; details: SW-620, 48 h
# [10] = system: SF-539; assay: Growth inhibition of human SF539 cells incubated for 48 hrs by sulforhodamine B assay; type: functional; details: SF-539, 48 h
# [11] = system: RXF 393; assay: Growth inhibition of human RXF393 cells incubated for 48 hrs by sulforhodamine B assay; type: functional; details: RXF 393, 48 h
# [12] = system: RPMI-8226; assay: Growth inhibition of human RPMI8226 cells incubated for 48 hrs by sulforhodamine B assay; type: functional; details: RPMI-8226, 48 h
# [13] = system: DU-145; assay: cells; details: Homo sapiens, DU-145, 72 h
# [14] = system: OVCAR-8; assay: Growth inhibition of human OVCAR8 cells incubated for 48 hrs by sulforhodamine B assay; type: functional; details: OVCAR-8, 48 h
# [15] = system: K562; assay: Growth inhibition of human K562 cells incubated for 48 hrs by sulforhodamine B assay; type: functional; details: K562, 48 h
# [16] = system: UACC-257; assay: Growth inhibition of human UACC257 cells incubated for 48 hrs by sulforhodamine B assay; type: functional; details: UACC-257, 48 h
# [17] = system: MDA-MB-231; assay: Growth inhibition of human MDA-MB-231 cells incubated for 48 hrs by sulforhodamine B assay; type: functional; details: MDA-MB-231, 48 h
# [18] = system: OVCAR-3; assay: Growth inhibition of human OVCAR3 cells incubated for 48 hrs by sulforhodamine B assay; type: functional; details: OVCAR-3, 48 h
# [19] = system: SNB-19; assay: Growth inhibition of human SNB19 cells incubated for 48 hrs by sulforhodamine B assay; type: functional; details: SNB-19, 48 h
# [20] = system: SF-295; assay: Growth inhibition of human SF295 cells incubated for 48 hrs by sulforhodamine B assay; type: functional; details: SF-295, 48 h
# [21] = system: TK-10; assay: Growth inhibition of human TK10 cells incubated for 48 hrs by sulforhodamine B assay; type: functional; details: TK-10, 48 h
# [22] = system: PC-3; assay: Growth inhibition of human PC3 cells incubated for 48 hrs by sulforhodamine B assay; type: functional; details: PC-3, 48 h
# [23] = system: HCC 2998; assay: Growth inhibition of human HCC2998 cells incubated for 48 hrs by sulforhodamine B assay; type: functional; details: HCC 2998, 48 h
# [24] = system: NCI-H23; assay: Growth inhibition of human NCI-H23 cells incubated for 48 hrs by sulforhodamine B assay; type: functional; details: NCI-H23, 48 h
# [25] = system: SK-OV-3; assay: Growth inhibition of human SKOV3 cells incubated for 48 hrs by sulforhodamine B assay; type: functional; details: SK-OV-3, 48 h
# [26] = system: NCI-H322M; assay: Growth inhibition of human NCI-H322M cells incubated for 48 hrs by sulforhodamine B assay; type: functional
# [27] = system: U-251; assay: Growth inhibition of human U251 cells incubated for 48 hrs by sulforhodamine B assay; type: functional; details: U-251, 48 h
# [28] = system: SK-MEL-28; assay: Growth inhibition of human SK-MEL-28 cells incubated for 48 hrs by sulforhodamine B assay; type: functional; details: SK-MEL-28, 48 h
# [29] = system: MDA-MB-435; assay: Growth inhibition of human MDA-MB-435 cells incubated for 48 hrs by sulforhodamine B assay; type: functional; details: MDA-MB-435, 48 h
# [30] = target: T1, DNA topoisomerase 1 (Homo sapiens) (UniProt P11387); assay: Inhibition of recombinant TOP1 (unknown origin) using 3'-[32P]-labeled 117 bp DNA oligonucleotide assessed as TOP1-mediated DNA cleavage by measuring induction and stabilization of cleavage sites 17, 35 and 79 incubated for 20 mins by PAGE analysis
# T1 sequence (whole entry): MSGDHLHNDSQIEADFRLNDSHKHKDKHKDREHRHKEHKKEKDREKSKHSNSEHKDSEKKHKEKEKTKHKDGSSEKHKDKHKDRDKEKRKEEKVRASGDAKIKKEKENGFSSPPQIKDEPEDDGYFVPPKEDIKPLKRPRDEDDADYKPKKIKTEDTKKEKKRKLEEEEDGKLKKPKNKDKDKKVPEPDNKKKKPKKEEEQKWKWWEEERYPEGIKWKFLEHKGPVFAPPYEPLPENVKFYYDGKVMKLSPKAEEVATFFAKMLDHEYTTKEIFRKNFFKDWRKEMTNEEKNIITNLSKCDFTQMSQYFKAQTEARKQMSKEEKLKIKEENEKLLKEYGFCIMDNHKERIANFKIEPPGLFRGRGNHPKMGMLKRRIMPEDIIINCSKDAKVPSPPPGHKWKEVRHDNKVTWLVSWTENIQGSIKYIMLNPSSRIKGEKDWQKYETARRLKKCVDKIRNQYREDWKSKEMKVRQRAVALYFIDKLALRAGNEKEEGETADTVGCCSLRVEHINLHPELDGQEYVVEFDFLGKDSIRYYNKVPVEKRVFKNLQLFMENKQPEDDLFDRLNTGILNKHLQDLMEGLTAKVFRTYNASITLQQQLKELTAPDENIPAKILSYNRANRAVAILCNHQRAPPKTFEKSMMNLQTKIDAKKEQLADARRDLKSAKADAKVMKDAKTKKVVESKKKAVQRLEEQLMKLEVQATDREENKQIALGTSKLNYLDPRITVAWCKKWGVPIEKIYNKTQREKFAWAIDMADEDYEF
# [31] = system: HCT-116; assay: Induction of apoptosis in human HCT116 cells assessed as viable cells at 0.5 uM incubated for 24 hrs by FITC and PI staining based flow cytometric analysis (reference value: 99.27%); type: functional; details: HCT-116, 24 h, read-out: Activity
# [32] = AUC (0 to t) in Sprague-Dawley rat at 5 mg/kg, ig measured for 0.083 to 4 hrs by LC-MS/MS analysis; type: ADME, organism-based; parameters: time upper 4 hr, dose 5 mg/kg, time lower 0.083 hr, route […]; details: in vivo, po
# [33] = Half life in Sprague-Dawley rat at 1 mg/kg, iv measured for 0.083 to 4 hrs by LC-MS/MS analysis; type: ADME, organism-based; details: in vivo
# [34] = system: MCF7; assay: Antitumour activity against human MCF7 cells xenografted in ip dosed athymic nude nu/nu mouse assessed as reduction in tumor volume administrated daily by caliper method; type: functional, organism-based
SMILES,GI50 [1] [nM],GI50 [2] [nM],GI50 [3] [nM],GI50 [4] [nM],GI50 [5] [nM],GI50 [6] [nM],GI50 [7] [nM],GI50 [8] [nM],GI50 [9] [nM],GI50 [10] [nM],GI50 [11] [nM],GI50 [12] [nM],GI50 [13] [nM],GI50 [14] [nM],GI50 [15] [nM],GI50 [16] [nM],GI50 [17] [nM],GI50 [18] [nM],GI50 [19] [nM],GI50 [20] [nM],further results
COc1cc2c(=O)n(CCN)c3c4cc5c(cc4ccc3c2cc1OC)OCO5,278,739,1360,168,90.7,324,420,442,243,1060,929,257,14,930,161,1900,1280,826,398,279,GI50 [21]: 1350 nM; GI50 [22]: 532 nM; GI50 [23]: 1020 nM; GI50 [24]: 451 nM; GI50 [25]: 1240 nM; GI50 [26]: 990 nM; GI50 [27]: 260 nM; GI50 [28]: 3050 nM; GI50 [29]: 759 nM; Activity [30]: Dose-dependent effect
CNCCn1c(=O)c2cc(OC)c(OC)cc2c2ccc3cc4c(cc3c21)OCO4,45.1,171,202,50.8,17.3,58.1,116,90.3,65.8,124,160,76.3,2,132,39.4,122,362,166,116,34.6,viability at 0.5 µM [31]: 93.3%; AUCt [32]: 48.3 ng·h/mL; half-life [33]: 1.21 h; GI50 [21]: 316 nM; GI50 [22]: 112 nM; GI50 [23]: 156 nM; GI50 [24]: 90.6 nM; inhibition [34]: Dose-dependent effect; GI50 [25]: 157 nM; GI50 [26]: 147 nM; GI50 [27]: 39.4 nM; GI50 [28]: 573 nM; GI50 [29]: 118 nM; Activity [30]: Dose-dependent effect
